Where a name gives a salt, the structure may show the parent alone. Blank lines part the entries; values can stand above or below the molecule they belong to.
Target: MASP-2 CCP2-SP (Homo sapiens (Human), UniProt O00187)
Experiment: MASP-2 co-crystallization, X-ray crystallography and structure analysis (H-bonds, van der Waals contacts);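 for Ligand-pharmacophore element distance, pharmacophore element C2: distance from averaged pharmacophore element to bound ligand; missing value means element absent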;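 for Ligand-pharmacophore element distance, pharmacophore element C3: distance from averaged pharmacophore element to bound ligand; missing value means element absent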;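 for Ligand-pharmacophore element distance, pharmacophore element C4: distance from averaged pharmacophore element to bound ligand; missing value means element absent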;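 for Ligand-pharmacophore element distance, pharmacophore element C5: distance from averaged pharmacophore element to bound ligand; missing value means element absent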
Design: van der Waals contact distance, MASP-2 HIS 483 atom CD2 / van der Waals contact distance, MASP-2 HIS 483 atom NE2 / van der Waals contact distance, SER 654 C to compound atom / van der Waals contact distance, SER 654 O to compound atom / van der Waals contact distance, TRP 655 C to compound atom / van der Waals contact distance, MASP-2 GLY 528 atom CA / van der Waals contact distance TRP 655 atom CZ3 / van der Waals contact distance TRP 655 atom N / van der Waals contact distance TRP 655 atom CE3 / van der Waals contact distance GLY 656 atom C / van der Waals contact distance GLY 656 atom CA / van der Waals contact distance GLY 656 atom O / van der Waals contact distance, MASP-2 TYR 607 atom CD1 / van der Waals contact distance, MASP-2 PRO 606 atom O / d(C3,CA1) / d(CA1,N1)2 / d(H4,O1) / d(H4,O2) / d(O1,O2) / d(CA1,O2) / d(CA6,O1) / d(CA6,O2) / d(CA1,C5) / d(O2,H3) / d(N2,C2) / d(CA5,N2) / d(N2,C4) / d(N2,C6) / d(N2,CA3) / d(N2,O3) / d(O4,H2): unit not given beside the values
Settings: for H-bond distance to MASP-2 GLY 656 atom N: GLY 656 N; for H-bond distance to MASP-2 SER 628 atom O: SER 628 O; for H-bond distance to MASP-2 SER 654 atom O: SER 654 O; for H-bond distance to MASP-2 SER 657 atom O: SER 657 O; for Ligand-pharmacophore element distance, pharmacophore element C2 / Ligand-pharmacophore element distance, pharmacophore element C3 / Ligand-pharmacophore element distance, pharmacophore element C4 / Ligand-pharmacophore element distance, pharmacophore element C5 / Ligand-pharmacophore element distance, pharmacophore element C6 / Ligand-pharmacophore element distance, pharmacophore element C7 / Ligand-pharmacophore element distance, pharmacophore element CA1 / Ligand-pharmacophore element distance, pharmacophore element CA2 / Ligand-pharmacophore element distance, pharmacophore element CA3 / Ligand-pharmacophore element distance, pharmacophore element CA4 / Ligand-pharmacophore element distance, pharmacophore element CA5 / Ligand-pharmacophore element distance, pharmacophore element CA6: Table A4-1; for d(CA5,N2) / d(N2,CA2) / d(O2,H3) / d(O2,N2) / d(N2,C2): Table A5-2 pharmacophore distance, S3/S4 region; for a(O1, O2, H3) / a(O1, O2, N2) / a(O2, N2, CA2) / a(O2, N2, C2): Table A6-2 pharmacophore angle; for Pharmacophore torsion angle a(O1, O2, N2, CA2) / Pharmacophore torsion angle a(O1, O2, N2, CA5): Table A7-2
How it was run: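 First, CCP2-SP constructs with or without a 6His tag are produced in E. coli. Crystals are then soaked once or twice with inhibitor, cryoprotected in 20% glycerol or frozen directly, and diffracted at synchrotron beamlines. Phasing uses molecular replacement with parts of 1Q3X.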

[1] = Table A5-1 pharmacophore: distance between elements, S2/S1 region
[2] = Table A7-1, between pharmacophore elements of the bound compound
[3] = between pharmacophore elements of the bound compound
[4] = Table A8-6, nearest protein atom in cell to the left

Chain of MASP-2 CCP2-SP (O00187 445-686): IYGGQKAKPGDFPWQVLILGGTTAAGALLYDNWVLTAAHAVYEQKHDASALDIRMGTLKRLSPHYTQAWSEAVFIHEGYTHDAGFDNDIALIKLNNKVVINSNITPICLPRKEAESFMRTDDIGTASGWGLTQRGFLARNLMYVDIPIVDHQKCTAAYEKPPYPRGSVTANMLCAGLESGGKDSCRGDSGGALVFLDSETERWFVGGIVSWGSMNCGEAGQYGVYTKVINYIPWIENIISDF
Chain of MASP-2 CCP2-SP (O00187 364-432 partner): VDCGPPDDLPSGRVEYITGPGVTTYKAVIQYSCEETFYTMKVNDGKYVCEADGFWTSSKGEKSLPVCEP

SMILES: Cc1nc(N)ccc1CNC(=O)[C@H](C)NC(=O)[C@H]1C[C@H](Cc2ccccc2-c2ccccc2)CN1 [compound 1373, (2R,4S)-4-([1,1′-Biphenyl]-2-ylmethyl)-N—((S)-1-(((6-amino-2-methylpyridin-3-yl)methyl)amino)-1-oxopropan-2-yl)pyrrolidine-2-carboxamide Di-trifluoroacetate salt]
H-bond distance to MASP-2 ASP 627 atom OD2 (Table A1 (H-Bonds), ASP 627 OD2): 3.21
H-bond distance to MASP-2 GLY 656 atom N (Table A1 (H-Bonds)): 3.2
H-bond distance to MASP-2 GLY 656 atom O (Table A1 (H-Bonds), GLY 656 O): 2.76
H-bond distance to MASP-2 SER 628 atom O (Table A1 (H-Bonds)): 3.18
H-bond distance to MASP-2 SER 654 atom O (Table A1 (H-Bonds)): 3.04
H-bond distance to MASP-2 SER 657 atom O (Table A1 (H-Bonds)): 2.89
van der Waals contact distance, MASP-2 HIS 483 atom CD2 (Table A2-1): 3.71
van der Waals contact distance, MASP-2 HIS 483 atom NE2 (Table A2-1): 3.62
van der Waals contact distance, MASP-2 GLY 528 atom CA (Table A2-2): 3.79
van der Waals contact distance, MASP-2 amino acid atom to compound atom (Table A2-7: SER 628 (CB, O, OG)): 3.64
van der Waals contact distance, VAL 653 CG1 to compound atom (Table A2-11): 3.34
van der Waals contact distance, SER 654 O to compound atom (Table A2-12): 3.83
van der Waals contact distance, TRP 655 CA to compound atom (Table A2-12): 3.44
van der Waals contact distance TRP 655 atom CE3 (Table A2-13, MASP-2 TRP 655 CE3, compound atom in line below): 3.65
van der Waals contact distance TRP 655 atom CZ3 (Table A2-13, MASP-2 TRP 655 CZ3): 3.57
van der Waals contact distance, MASP-2 amino acid atom to compound atom (Table A2 section before Table A2-8): 3.83
Ligand-pharmacophore element distance, pharmacophore element C2: 0
Ligand-pharmacophore element distance, pharmacophore element C3: 0.08
Ligand-pharmacophore element distance, pharmacophore element C4: 0
Ligand-pharmacophore element distance, pharmacophore element C5: 0
Ligand-pharmacophore element distance, pharmacophore element C6: 0
Ligand-pharmacophore element distance, pharmacophore element C7: 0
Ligand-pharmacophore element distance, pharmacophore element CA1: 0.56
Ligand-pharmacophore element distance, pharmacophore element CA2: 0.54
Ligand-pharmacophore element distance, pharmacophore element CA3: 0
Ligand-pharmacophore element distance, pharmacophore element CA4: 0
Ligand-pharmacophore element distance, pharmacophore element CA5: 2.5
Ligand-pharmacophore element distance, pharmacophore element CA6: 0
d(C3,CA1) [1]: 2.85
d(CA1,N1)2 [1]: 1.37
d(CA1,O1) [1]: 4.41
d(CA1,O2) [1]: 3.86
d(H4,O1) [1]: 4.40
d(H4,O2) [1]: 3.78
d(O1,O2) [1]: 3.38
d(CA5,N2): 6.60
d(N2,CA2): 6.03
d(O2,H3): 4.31
d(O2,N2): 2.65
a(C3, CA1, O1) (Table A6-1 pharmacophore angle): 149.81
a(CA1, O1, O2) (Table A6-1 pharmacophore angle): 105.28
a(O1, O2, H4) (Table A6-1 pharmacophore angle): 131.90
a(N1, CA1, O1) b) (Table A6-1 pharmacophore angle, Methyl-amino-pyridine compounds): 174.08
a(O1, O2, H3): 147.32
a(O1, O2, N2): 141.07
a(O2, N2, CA2): 156.78
Pharmacophore torsion angle a(C3, CA1, O1, H4) [2]: 25.67
Pharmacophore torsion angle a(H4, O1, O2, H3) [2]: 50.98
Pharmacophore torsion angle a(H4, O1, O2, N2) [2]: 139.02
Pharmacophore torsion angle a(N1, CA1, O1, H4) [2]: 4.28
Pharmacophore torsion angle a(O1, H4, O2, CA1) [2]: −84.42
Pharmacophore torsion angle a(O1, O2, N2, CA2) [3]: 127.58
Pharmacophore torsion angle a(O1, O2, N2, CA5) [3]: 91.76

H-bond distance to MASP-2 ASP 627 atom OD1 (Table A1 (H-Bonds), ASP 627 OD1): 2.9
H-bond distance to MASP-2 GLN 665 atom OE1 (Table A1 (H-Bonds), GLN 665 OE1): 3.26
H-bond distance to MASP-2 GLN 665 atom OE1 (second bond) (Table A1 (H-Bonds), GLN 665 OE1, second column): 2.8
H-bond distance to MASP-2 GLY 656 atom N (Table A1 (H-Bonds)): 2.91
H-bond distance to MASP-2 SER 628 atom O (Table A1 (H-Bonds)): 2.91
H-bond distance to MASP-2 SER 654 atom O (Table A1 (H-Bonds)): 2.99
H-bond distance to MASP-2 SER 657 atom O (Table A1 (H-Bonds)): 2.75
van der Waals contact distance, MASP-2 PRO 606 atom CG (Table A2-4): 3.71
van der Waals contact distance, MASP-2 amino acid atom to compound atom (Table A2-10, ARG 630 NH2, GLY 631, ASP 632, SER 633): 3.11
van der Waals contact distance, SER 654 C to compound atom (Table A2-11): 3.83
van der Waals contact distance, TRP 655 CA to compound atom (Table A2-12): 3.42
van der Waals contact distance TRP 655 atom O (Table A2-13, MASP-2 TRP 655 O): 3.77
van der Waals contact distance SER 657 atom C (Table A2-14, MASP-2 SER 657 C, columns c12-c13 (inferred)): 3.51
Ligand-pharmacophore element distance, pharmacophore element C2: 2.4
Ligand-pharmacophore element distance, pharmacophore element C3: 0
Ligand-pharmacophore element distance, pharmacophore element C4: 0
Ligand-pharmacophore element distance, pharmacophore element C5: 0
Ligand-pharmacophore element distance, pharmacophore element C6: 0
Ligand-pharmacophore element distance, pharmacophore element C7: 0
Ligand-pharmacophore element distance, pharmacophore element CA1: 0.28
Ligand-pharmacophore element distance, pharmacophore element CA2: 0
Ligand-pharmacophore element distance, pharmacophore element CA3: 0
Ligand-pharmacophore element distance, pharmacophore element CA4: 0
Ligand-pharmacophore element distance, pharmacophore element CA5: 0.98
Ligand-pharmacophore element distance, pharmacophore element CA6: 0
Ligand-pharmacophore element distance, pharmacophore element H1 (Table A4-2, element H1): 0
Ligand-pharmacophore element distance, pharmacophore element H2 (Table A4-2, element H2): 0
Ligand-pharmacophore element distance, pharmacophore element H3 (Table A4-2, element H3): 1.08
Ligand-pharmacophore element distance, pharmacophore element H4 (Table A4-2, element H4): 3.56
Ligand-pharmacophore element distance, pharmacophore element N1 (Table A4-2, element N1): 1.87
Ligand-pharmacophore element distance, pharmacophore element N2 (Table A4-2, element N2): 0.86
Ligand-pharmacophore element distance, pharmacophore element O1 (Table A4-2, element O1): 0.39
Ligand-pharmacophore element distance, pharmacophore element O2 (Table A4-2, element O2): 0.49
Ligand-pharmacophore element distance, pharmacophore element O3 (Table A4-2, element O3): 0
Ligand-pharmacophore element distance, pharmacophore element O4 (Table A4-2, element O4): 0
d(CA1,N1) [1]: 3.64
d(CA1,O1) [1]: 4.35
d(CA1,O2) [1]: 4.19
d(H4,O1) [1]: 4.86
d(H4,O2) [1]: 4.31
d(O1,O2) [1]: 3.48
d(CA5,N2): 3.72
d(N2,C2): 2.26
d(O2,H3): 2.74
d(O2,N2): 3.03
a(CA1, O1, O2) (Table A6-1 pharmacophore angle): 111.64
a(O1, O2, H4) (Table A6-1 pharmacophore angle): 135.95
A(N1, CA1, O1) a) (Table A6-1 pharmacophore angle, all compounds with protonatable center N1 except Methyl-amino-pyridine): 160.69
a(O1, O2, H3): 135.88
a(O1, O2, N2): 137.69
a(O2, N2, C2): 100.68
Pharmacophore torsion angle a(H4, O1, O2, H3) [2]: 93.33
Pharmacophore torsion angle a(H4, O1, O2, N2) [2]: 142.83
Pharmacophore torsion angle a(N1, CA1, O2, H4) [2]: −127.27
Pharmacophore torsion angle a(O1, H4, O2, CA1) [2]: −61.32
Pharmacophore torsion angle a(O1, O2, N2, C2) [2]: 68.39
Pharmacophore torsion angle a(O1, O2, N2, CA5) [3]: 137.68
Pharmacophore protein distance to MET_658 (first MET_658 column) (Table A8-6, 6th residue column, nearest protein atom in cell to the left): 2.86
Pharmacophore protein distance to MET_658 (second MET_658 column) (Table A8-6, 9th residue column, nearest protein atom in cell to the left): 3.46
Pharmacophore protein distance to GLY_528 [4]: 3.79
Pharmacophore protein distance to PHE_529 [4]: 3.09
Pharmacophore protein distance to PRO_608 [4]: 2.97
Pharmacophore protein distance to SER_611 [4]: 3.32
Pharmacophore protein distance to TRP_655 (Table A8-6, pharmacophore elements C6, CA3, O3, H1, nearest protein atom in cell to the left): 3.27
SMILES: N=C(N)c1ccc(CNC(=O)[C@@H]2CCN2C(=O)[C@H]2Cc3ccccc3CN2)cc1 [compound 1034]

SMILES: C[C@H](NC(=O)[C@H]1C[C@@H](c2ccccc2)CCN1)C(=O)NCc1cc(Cl)ccc1O.Cl [1078_11]
Ligand-pharmacophore element distance, pharmacophore element C2: 0.6
Ligand-pharmacophore element distance, pharmacophore element C3: 0
Ligand-pharmacophore element distance, pharmacophore element C4: 0
Ligand-pharmacophore element distance, pharmacophore element C5: 0.41
Ligand-pharmacophore element distance, pharmacophore element C6: 0
Ligand-pharmacophore element distance, pharmacophore element C7: 0
Ligand-pharmacophore element distance, pharmacophore element CA1: 1.64
Ligand-pharmacophore element distance, pharmacophore element CA2: 0.64
Ligand-pharmacophore element distance, pharmacophore element CA3: 0
Ligand-pharmacophore element distance, pharmacophore element CA4: 0
Ligand-pharmacophore element distance, pharmacophore element CA5: 0
Ligand-pharmacophore element distance, pharmacophore element CA6: 0
d(CA1,C5) [1]: 3.12
d(CA1,O1) [1]: 4.69
d(CA1,O2) [1]: 4.58
d(CA1,O4) [1]: 2.75
d(H4,O1) [1]: 2.26
d(H4,O2) [1]: 2.51
d(O1,O2) [1]: 3.42
d(O4,H2) [1]: 0.97
d(N2,C2): 1.47
d(N2,CA2): 5.75
d(O2,H3): 3.05
d(O2,N2): 2.97
a(C5, CA1, O1) (Table A6-1 pharmacophore angle): 161.80
a(CA1, O1, O2) (Table A6-1 pharmacophore angle): 109.94
a(CA1, O4, H2) (Table A6-1 pharmacophore angle): 130.34
a(O1, CA1, O4) (Table A6-1 pharmacophore angle): 59.87
a(O1, O2, H4) (Table A6-1 pharmacophore angle): 88.73
a(O1, O2, H3): 137.81
a(O1, O2, N2): 142.32
a(O2, N2, C2): 120.15
a(O2, N2, CA2): 152.82
Pharmacophore torsion angle a(C5, CA1, O1, H4) [2]: 37.14
Pharmacophore torsion angle a(H4, O1, O2, H3) [2]: −120.02
Pharmacophore torsion angle a(H4, O1, O2, N2) [2]: −112.40
Pharmacophore torsion angle a(O1, H4, O2, CA1) [2]: −55.96
Pharmacophore torsion angle a(O1, O2, N2, C2) [2]: 136.21
Pharmacophore torsion angle a(O1, O2, N2, CA2) [3]: 138.54

Reference: US12195427B2, “MASP-2 inhibitors and methods of use” (priority 2018, dated 2025)
